Experiments:
Type in all cases: cell-based
[1] = target: T1, ERα (Homo sapiens, UniProt P03372); test: ERα antagonism reporter (luciferase) assay in transfected COS-1 cells; design: expressed in transfected cells; host or cells: COS-1; details: sample concentration 10 μM with 100 nM E2, complete antagonism corresponding to 5.7, 18 hours
T1 sequence (P03372 1-595): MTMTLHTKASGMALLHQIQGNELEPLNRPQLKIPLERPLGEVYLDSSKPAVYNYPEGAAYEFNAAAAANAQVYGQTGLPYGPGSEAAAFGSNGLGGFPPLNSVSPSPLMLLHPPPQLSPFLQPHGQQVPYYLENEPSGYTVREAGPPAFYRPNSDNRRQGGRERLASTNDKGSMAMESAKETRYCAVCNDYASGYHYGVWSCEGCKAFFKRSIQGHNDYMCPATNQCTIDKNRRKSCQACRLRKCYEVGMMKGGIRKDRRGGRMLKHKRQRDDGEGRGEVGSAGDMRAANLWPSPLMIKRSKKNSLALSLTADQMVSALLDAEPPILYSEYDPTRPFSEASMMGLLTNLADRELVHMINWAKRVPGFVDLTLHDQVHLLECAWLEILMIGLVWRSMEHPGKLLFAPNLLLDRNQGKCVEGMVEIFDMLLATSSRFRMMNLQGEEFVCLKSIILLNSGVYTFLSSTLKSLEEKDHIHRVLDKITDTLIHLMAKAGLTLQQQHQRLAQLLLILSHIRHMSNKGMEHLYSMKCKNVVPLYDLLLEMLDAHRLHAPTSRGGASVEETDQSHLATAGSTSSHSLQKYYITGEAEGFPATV
Method: Determination of the Antiestrogen Activity of the Compounds.
One day before transfection, COS-1 cells were seeded into 1 ml of DMEM (Dulbecco's modified Eagle medium, Gibco) with 10% delipidated fetal bovine serum and 0,25% (vol/vol) Penicillin-Streptomysin (Euroclone) at a density of 70×10^3 cells/well. […] After transfection, the cells received treatment with test compounds giving a final concentration of 10 μM for each compound. In the antagonist test the wells were also treated with 10^−7 M estradiol. After 18 hours, the cells were washed, lysed and assayed for luciferase and normalization for β-galactosidase activities and protein concentrations. The cells were washed with 100 μl of cold phosphate buffered saline (PBS), lysed with 35 μl 1× Reporter lysis Buffer (Promega) and frosted (−70° C.) for 30 minutes. Cell lysates were placed in 1.5 ml of propylene centrifuge tubes and centrifuged with 13200 g for 5 min in room temperature. For β-galactosidase assay 10 μl of supernatant from each cell extract was transferred to a 96-well plate (96 well Elisa Microplates, PS, Microcon) and incubated for 10 min at 37° C. with 65 μl of reaction mixture consisting 0.76 gl 100×Mg-buffer, 12.5 μl ONPG (4 mg/ml), and 54.3 μl of sodium-phosphate buffer (pH 7). The reaction was stopped with treatment of 125 μl Na2CO3. […] For the study of protein concentrations 5 μl of the supernatant was transferred to a 96-well plate (96 well Elisa Microplates, PS, Microcon) and mixed with 200 μl of 1× Bio-rad protein assay reagent. The luciferase activities were measured with Thermo Luminoscan Ascent scanner and the protein concentrations and β-galactosidase activities with Thermo Labsystem Multiscan Ex scanner. Also blank and control samples were measured. During the maintenance, transfection, and treatment with tested compounds the cells were incubated in humidified atmosphere with 5% carbon dioxide at 37° C.

[2] = target: T1, ERα; test: ERα reporter (luciferase) transactivation assay in transfected HEK293 cells; design: expressed in transfected cells; host or cells: HEK293; details: sample concentration 10 μM, 24 hours, mean of at least three independent transfections
Method in brief: (§1)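 HEK293 cells in phenol-free DMEM with 5% delipidated FBS were calcium-phosphate transfected for 4 h with ERα or ERβ vector, pERE2TATA-LUC reporter and pCMVβ control. Test compound (10 μM) or vehicle was applied for 24 h, then luciferase and β-galactosidase were measured. Values are means ±SEM of ≥3 transfections.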

[3] = target: ERβ (Homo sapiens, UniProt Q92731); test: ERβ reporter (luciferase) transactivation assay in transfected HEK293 cells; design: expressed in transfected cells; host or cells: HEK293; details: sample concentration 10 μM, 24 hours, mean of at least three independent transfections
Method in brief: as §1

Chain of ERβ (Q92731 whole entry): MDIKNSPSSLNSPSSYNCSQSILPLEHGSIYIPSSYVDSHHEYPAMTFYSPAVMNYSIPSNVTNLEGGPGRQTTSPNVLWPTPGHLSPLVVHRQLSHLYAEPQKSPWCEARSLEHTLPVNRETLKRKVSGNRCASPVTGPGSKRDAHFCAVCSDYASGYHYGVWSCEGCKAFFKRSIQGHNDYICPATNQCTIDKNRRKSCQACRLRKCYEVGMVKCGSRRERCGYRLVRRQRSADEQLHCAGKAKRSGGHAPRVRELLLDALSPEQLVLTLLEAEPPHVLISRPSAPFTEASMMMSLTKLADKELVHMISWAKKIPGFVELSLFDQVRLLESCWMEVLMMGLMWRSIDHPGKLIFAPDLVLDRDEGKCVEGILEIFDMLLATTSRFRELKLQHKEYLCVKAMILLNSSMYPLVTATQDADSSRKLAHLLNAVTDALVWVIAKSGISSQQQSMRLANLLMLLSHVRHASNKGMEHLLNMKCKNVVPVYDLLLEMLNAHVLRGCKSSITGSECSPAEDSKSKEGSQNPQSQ

ERα receptor antagonism relative to 100 nM E2 corresponding 100 [1]	ERα receptor activation relative to 10 nM E2 corresponding 100 [2] [%]	ERβ receptor activation relative to 10 nM E2 corresponding 100 [3] [%]	Structure (SMILES)
93.6	4.8	0.2	Oc1ccc(CC2=NOC(c3ccccc3)C2)cc1 (single isomer, unassigned) [84a, 3-(4-Hydroxy-benzyl)-5-phenyl-4,5-dihydro-isoxazole]
64.5	7.6	18.5	Oc1ccc(CC2=NOC(c3ccccc3)C2)cc1 (single isomer, unassigned) [84b, 3-(4-Hydroxy-benzyl)-5-phenyl-4,5-dihydro-isoxazole]
95.6	11.8	−0.4	CC1(c2ccccc2)CC(CCc2ccccc2O)=NO1 (single isomer, unassigned) [85a, 3-[2-(2-Hydroxy-phenyl)-ethyl]-5-methyl-5-phenyl-4,5-dihydro-isoxazole]
57.9	21.7	30.0	CC1(c2ccccc2)CC(CCc2ccccc2O)=NO1 (single isomer, unassigned) [85b, 3-[2-(2-Hydroxy-phenyl)-ethyl]-5-methyl-5-phenyl-4,5-dihydro-isoxazole]
87.3	21.6	0.5	CC1(c2ccccc2)CC(CCc2cccc(O)c2)=NO1 (single isomer, unassigned) [86a, 3-[2-(3-Hydroxy-phenyl)-ethyl]-5-methyl-5-phenyl-4,5-dihydro-isoxazole]
101.8	7.1	−2.9	CC1(c2ccccc2)CC(CCc2cccc(O)c2)=NO1 (single isomer, unassigned) [86b, 3-[2-(3-Hydroxy-phenyl)-ethyl]-5-methyl-5-phenyl-4,5-dihydro-isoxazole]
63.1	39.7	18.0	CC1(c2ccccc2)CC(CCc2ccc(O)cc2)=NO1 (single isomer, unassigned) [87a, 3-[2-(4-Hydroxy-phenyl)-ethyl]-5-methyl-5-phenyl-4,5-dihydro-isoxazole]
55.0	18.7	37.4	CC1(c2ccccc2)CC(CCc2ccc(O)cc2)=NO1 (single isomer, unassigned) [87b, 3-[2-(4-Hydroxy-phenyl)-ethyl]-5-methyl-5-phenyl-4,5-dihydro-isoxazole]
115.2	0.3	1.3	Oc1ccc(CCCC2=NOC(Cc3ccccc3)C2)cc1O (single isomer, unassigned) [102a, 5-Benzyl-3-[3-(3,4-dihydroxy-phenyl)-propyl]-4,5-dihydro-isoxazole]
104.8	2.1	−1.3	Oc1ccc(CCCC2=NOC(Cc3ccccc3)C2)cc1O (single isomer, unassigned) [102b, 5-Benzyl-3-[3-(3,4-dihydroxy-phenyl)-propyl]-4,5-dihydro-isoxazole]
132.9			Oc1ccc(CCCC2=NOC(Cc3ccccc3)C2)cc1 (centres unmarked) [99ab, 5-Benzyl-3-[3-(4-hydroxy-phenyl)-propyl]-4,5-dihydro-isoxazole]
39.4			Oc1ccc(CCCC2=NOC(Cc3ccc(O)cc3)C2)cc1 (centres unmarked) [101ab, 5-(4-Hydroxy-benzyl)-3-[3-(4-hydroxy-phenyl)-propyl]-4,5-dihydro-isoxazole]
